Results taken from publication PMC4789278, “Pharmacological inhibition of LSD1 for the treatment of MLL-rearranged leukemia” (Journal of Hematology & Oncology, 2016).

Columns and labels:
MV4-11 leukemia = test: Systemic mouse model of MV4-11 leukemia
Description: A mouse model of systemic MV4-11 leukemia was established by injecting 10^7 MV4-11 cells/mouse intravenously through the tail veil into NOD-SCID mice with an engraftment rate of 100 %. After 2 weeks, human CD33^+/CD45^+ leukemia cells (0.1–0.5 %) can be detected by FACS in blood samples of the mice. The disease progressed rapidly, causing deaths in ~6 weeks after leukemia transplantation. Thus, upon detection of MV4-11 engraftments, mice were randomly separated into treatment and control groups.
NOD-SCID mice (4 to 6 weeks old) were obtained from Jackson lab (Bar Harbor, ME, USA) and maintained under specific pathogen-free conditions; 10^7 MV4-11 cells/mouse were injected intravenously through the tail veil, and animal weights were monitored twice a week. After 2 weeks when the blood samples showing 0.1–0.5 % CD45+/CD33+ human leukemia cells, mice were randomly segregated into control and treatment groups. […] Animals were sacrificed when >20 % weight loss, hunched posture, ruffled fur, or inactivity was observed. The peripheral blood, spleen, and bone marrow cells were isolated and tested for CD45^+/CD33^+ using FACS. Log-rank analysis was used to determine statistical significance of the survival curves using Prism 5.0.

recombinant human LSD1 = target: T1, recombinant human LSD1 (Homo sapiens, UniProt O60341); test: LSD1 enzyme inhibition assay (HRP/Amplex red); format: biochemical
T1 construct: Human LSD1 catalytic domain (172-833) was cloned; made in house; host or cells: E. coli BL21-CodonPlus (Agilent)
Description: The LSD1 inhibition assay was performed with the reaction rate (i.e., amount of the product H2O2, Additional file 1: Figure S2) being quantitatively determined by adding horseradish peroxidase (HRP) and a HRP fluorescence substrate Amplex red.
Human LSD1 catalytic domain (172-833) was cloned and inserted into pGEX-KG vector. The correctness of insert was verified by sequencing. BL21-CodonPlus strain (Agilent) was transformed with the pGEX-KG-LSD1 plasmid and cultured at 37 °C in LB medium containing ampicillin (50 μg/mL) and chloramphenicol (34 μg/mL). Upon reaching an optical density of ~0.9 at 600 nm, LSD1 expression was induced by adding 0.2 mM isopropylthiogalactoside at 25 °C for 20 h. Cells were harvested, lysed, and centrifuged at 20,000 rpm for 20 min, and the supernatant was collected and subjected to an affinity column chromatography using the glutathione sepharose resin.
The inhibition assay for the recombinant LSD1 was performed using a published protocol, with the reaction rate (i.e., amount of the product H2O2) being quantitatively determined by adding HRP and a HRP fluorescence substrate Amplex red. […] The total volume of the reaction mixture is 60 μL. After 20 min, 60-μL solution containing HRP (0.01 unit) and Amplex red (80 μM) was added and the fluorescence of each well was determined using a Beckman DTX-880 microplate reader (excitation at 535 and emission at 595 nm). Data were imported into Prism 5.0 (GraphPad), and the IC50 values were calculated by using the sigmoidal dose response curve fitting in the software. The reported IC50s were the mean values of at least three independent experiments.

MV4-11 cells = test: Cell migration assay (transwell); format: cell-based, human; settings: treatment for 4 days
Description: Importantly, only these stem-like cancer cells can form new tumors when transplanted into a new host, while the other non-stem cancer cells fail to do so. These stem-like cancer cells are more drug resistant and believed to be responsible for tumor metastasis and relapse. […] CD14 and CD11b are two cell surface proteins characteristic to differentiated macrophages/monocytes. […] Similarly, incubation with 2 led to considerably more CD11b^+ cells (Fig. 3b).
Cell migration assay was performed in a 24-well transwell plate with 8-μm polyethylene terephthalate membrane filters (Falcon cell culture insert; Becton-Dickinson) separating the lower from the upper culture chambers, according to the manufacturer’s instructions. […] Triplicate samples of 10^6 cells/well were plated in the upper chamber containing serum-free RPMI-1640. RPMI-1640 supplemented with 10 % FBS in the bottom chamber was used to attract cells to move through the filter. Cells were allowed to incubate at 37 °C for 4 h, after which the cells that had migrated through the pores were harvested in the bottom chamber and counted. Results are presented as means ± s.d.

| SMILES | less leukemia cells in the blood (MV4-11 leukemia; 2.5 mg/kg/day for 28 days) [%] | less leukemia cells in the spleen (MV4-11 leukemia; 2.5 mg/kg/day for 28 days) [%] | reduction of MV4-11 leukemia cells in the bone marrow (MV4-11 leukemia; 2.5 mg/kg/day for 28 days) [%] | human CD33+/CD45+ leukemia cells in the bone marrow (average) (MV4-11 leukemia; 2.5 mg/kg/day for 28 days, control 33.6 %) [%] | median survival (MV4-11 leukemia; 2.5 mg/kg/day for 28 days, control 34.5 days) [days] | inhibition of leukemia burdens in the bone marrow, spleen, and peripheral blood (MV4-11 leukemia; 5 mg/kg) [%] | inhibition rate in the blood (MV4-11 leukemia; 5 mg/kg/day for 28 days) [%] | inhibition rate in the bone marrow (MV4-11 leukemia; 5 mg/kg/day for 28 days) [%] | inhibition rate in the spleen (MV4-11 leukemia; 5 mg/kg/day for 28 days) [%] | median survival (MV4-11 leukemia; 5 mg/kg/day for 28 days, control 45 days) [days] | IC50 (recombinant human LSD1) [nM] | ability of MV4-11 cells to migrate through a membrane with 8-μm pores (MV4-11 cells) |
| --- | --- | --- | --- | --- | --- | --- | --- | --- | --- | --- | --- | --- |
| CN1CCN(C(=O)CNC2CC2c2ccc(OCc3ccccc3)cc2)CC1 (stereo not drawn) [Compound 1] | 92 | 81 | 80 | 6.7 | 43 | > 89 | 99 | 96 | 89 | 60 |  |  |
| CN1CCN(C(=O)CNC2CC2c2ccc(-c3ccc(F)nc3)cc2)CC1 (stereo not drawn) [Compound 2] |  |  |  |  |  |  |  |  |  |  | 77 | reduced ability for MV4-11 cells to migrate |
